Results on seven molecules are retold here after patent US9783511B2, “Carbamate benzoxazine propionic acids and acid derivatives for modulation of RORgamma activity and the treatment of disease” (Merck Sharp & Dohme Corp., priority 2013, dated 2017).

Each structure is given as a SMILES string. pIC50: −log10 of the molar value.

The target of this assay is human RORgammaT-Ligand Binding Domain (LBD) (Homo sapiens (Human), UniProt P51449). The assay can be described thus: RORγ-Ligand Binding Domain TR-FRET Assay (co-activator peptide SRC1_2 recruitment). The class given is biochemical. The following applies: HIS-tagged RORγ-LBD 3 nM, biotinylated SRC1 LXXLL peptide 100 nM, incubated overnight at 4° C., 665 nm/615 nm ratio. Put shortly: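 E. coli-expressed, Ni2+-purified HIS-tagged human RORγ-LBD at 3 nM final in 50 mM Tris pH 7.0, 50 mM KCl, 1 mM EDTA, 0.1 mM DTT, 100 μg/mL delipidated BSA. TR-FRET read-out of SRC1_2 co-activator peptide recruitment; compounds dispensed acoustically.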
Sequence of human RORgammaT-Ligand Binding Domain (LBD) (P51449 269-508): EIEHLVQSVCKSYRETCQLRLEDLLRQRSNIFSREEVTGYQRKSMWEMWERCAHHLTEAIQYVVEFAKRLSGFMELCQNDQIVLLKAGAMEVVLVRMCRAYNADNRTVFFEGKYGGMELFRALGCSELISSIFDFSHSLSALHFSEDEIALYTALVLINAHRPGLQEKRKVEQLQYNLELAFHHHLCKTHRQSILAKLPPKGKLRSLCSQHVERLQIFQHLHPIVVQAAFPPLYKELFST
In general terms: Time-resolved FRET reads energy transfer from a long-lived donor to a nearby acceptor.

With `COc1cc(S(=O)(=O)N2C[C@H](CCC(=O)O)Oc3c(F)cc(NC(=O)OC(C)(C)C(F)(F)F)cc32)ccc1F` [Example 29B, 3-[(2S)-8-fluoro-4-[(4-fluoro-3-methoxyphenyl)sulfonyl]-6-{[(2,2,2-trifluoro-1,1-dimethylethoxy)carbonyl]ami-no}-3,4-dihydro-2H-1,4-benzoxazin-2-yl]propanoic acid], the pIC50 (usually the negative decadic logarithm of the IC50, by convention in mol/L) was 8.41.

Take `CCn1cc(S(=O)(=O)N2C[C@H](CCC(=O)O)Oc3c(F)cc(NC(=O)OC(C)(C)C(F)(F)F)cc32)c(Cl)n1` [Example 29C, 3-[(2S)-4-[(3-chloro-1-ethyl-1H-pyrazol-4-yl)sulfonyl]-8-fluoro-6-{[(2,2,2-trifluoro-1,1-dimethylethoxy)carbonyl]ami-no}-3,4-dihydro-2H-1,4-benzoxazin-2-yl]propanoic acid]: the pIC50 is 8.01.

On to `CCOc1nn(CC)cc1S(=O)(=O)N1C[C@H](CCC(=O)O)Oc2c(F)cc(NC(=O)OC(C)(C)C(F)(F)F)cc21` [Example 29D, 3-[(2S)-4-[(3-ethoxy-1-ethyl-1H-pyrazol-4-yl)sulfonyl]-8-fluoro-6-{[(2,2,2-trifluoro-1,1-dimethylethoxy)carbonyl]ami-no}-3,4-dihydro-2H-1,4-benzoxazin-2-yl]propanoic acid], for which the pIC50 is 8.10.

For the molecule `CC(C)(OC(=O)Nc1cc(F)c2c(c1)N(S(=O)(=O)c1cccc(C(F)(F)F)c1)C[C@H](CCC(=O)O)O2)C(F)(F)F` [Example 29E, 3-[(2S)-8-fluoro-6-{[(2,2,2-trifluoro-1,1-dimethylethoxy)carbonyl]ami-no}-4-{[3-(trifluoromethyl)phenyl]sulfo-nyl}-3,4-dihydro-2H-1,4-benzoxazin-2-yl]propanoic acid], the pIC50 is 7.99.

For `CC(C)(OC(=O)Nc1cc(F)c2c(c1)N(S(=O)(=O)c1ccc(F)c(Cl)c1)C[C@H](CCC(=O)O)O2)C(F)(F)F` [Example 29F, 3-[(2S)-4-[(3-chloro-4-fluorophenyl)sulfonyl]-8-fluoro-6-{[(2,2,2-trifluoro-1,1-dimethylethoxy)carbonyl]ami-no}-3,4-dihydro-2H-1,4-benzoxazin-2-yl]propanoic acid], the pIC50 was 8.24.

With `CC(C)(OC(=O)Nc1cc(F)c2c(c1)N(S(=O)(=O)c1ccnc(C(F)(F)F)c1)C[C@H](CCC(=O)O)O2)C(F)(F)F` [Example 29H, 3-[(2S)-8-fluoro-6-{[(2,2,2-trifluoro-1,1-dimethylethoxy)carbonyl]ami-no}-4-{[2-(trifluoromethyl)pyridin-4-yl]sulfonyl}-3,4-dihydro-2H-1,4-benzoxazin-2-yl]propanoic acid], the pIC50 is 8.00.

On to `CC(C)(OC(=O)Nc1cc(F)c2c(c1)N(S(=O)(=O)c1cncc(C(F)(F)F)c1)C[C@H](CCC(=O)O)O2)C(F)(F)F` [Example 29i, 3-[(2S)-8-fluoro-6-{[(2,2,2-trifluoro-1,1-dimethylethoxy)carbonyl]ami-no}-4-{[5-(trifluoromethyl)pyridin-3-yl]sulfonyl}-3,4-dihydro-2H-1,4-benzoxazin-2-yl]propanoic acid], for which the pIC50 was 8.05.
